The target of one series is CYP450, 2C9 enzymes (Homo sapiens (Human), UniProt P11712). The series can be described thus: CYP450 enzyme inhibition test in human liver microsome. Type of series: in vitro ADME. Conditions: CYP450 2C9, LC-MS/MS. For orientation: Liver microsomes are a subcellular fraction often used to study metabolism.
For another series, the system named is TNF-α. The series can be described thus: In vitro cell experiment: LPS-stimulated TNF-α release in THP-1 cells (ELISA). Type of series: cell-based. Conditions: Homo sapiens; TNF-α in supernatant of THP-1 cells, compound 2 h then LPS 10 μg/ml 2 h. An excerpt: I. In Vitro Cell Experiment
Cells: human monocytic leukemia THP-1 cells (obtained from the Shanghai Cell Bank of Chinese Academy of Sciences).
Lipopolysaccharides: from Escherichia coli O55: B5, L2880 (Sigma).
Kit: Human TNF-α Elisa MAX Deluxe Set, 430206 (Biolegend)
In general terms: An ELISA detects its analyte on a solid surface through an enzyme-linked reagent.

The nature of series [1]: Pharmacokinetics experiment, oral administration to SD rats. Format: in vivo. Conditions: Sprague-Dawley (SD), rat, plasma. On the procedure:
IV. Pharmacokinetics Experiment
Experimental Method: SD rats were orally administrated the compounds and the blood samples were taken from the eye orbit of the rat sat different time intervals after administration (0.25, 0.5, 1, 2, 4, 6, 8, 24, 48 h). The collected whole blood was anticoagulant by EDTA (Ethylene Diamine Tetraacetic Acid Sodium) and 3000 g of samples were centrifugated to obtain the rats' plasma samples, methanol or ethanol was used to precipitate proteins, the drug concentration of the rats' plasma samples was determined, the drug concentration-time curve was plotted to calculate the pharmacokinetic parameters. The pharmacokinetic behavior in rats after administration was described by non-compartmental models statistical moment parameter.
The pharmacokinetic experiments were carried out for the compounds.

In the next series the target is p38a (Homo sapiens (Human), UniProt Q16539). The series can be described thus: Assay of p38 kinase activity (fluorescence, peptide substrate). Format: biochemical. Conditions: 40 nM p38a, 100 μM ATP, 90 minutes. On the procedure: II. Assay of p38 Kinase Activity
Experimental Method: 40 nM p38a was added into a reaction buffer, which include 20 mM HEPES (4-hydroxyethylpiperazine ethanesulfonic acid), 5 mM MgCl2 and 1 mM DTT (dithiothreitol) at pH 7.4. 40 μM phosphorylated peptide substrate was added, followed by different concentrations of drugs and 100 μM ATP (adenosine triphosphate), and reacted for 90 minutes in dark. […] The IC50 values of the compounds were obtained according to the fluorescence values.

p38a, sequence (Q16539 whole entry): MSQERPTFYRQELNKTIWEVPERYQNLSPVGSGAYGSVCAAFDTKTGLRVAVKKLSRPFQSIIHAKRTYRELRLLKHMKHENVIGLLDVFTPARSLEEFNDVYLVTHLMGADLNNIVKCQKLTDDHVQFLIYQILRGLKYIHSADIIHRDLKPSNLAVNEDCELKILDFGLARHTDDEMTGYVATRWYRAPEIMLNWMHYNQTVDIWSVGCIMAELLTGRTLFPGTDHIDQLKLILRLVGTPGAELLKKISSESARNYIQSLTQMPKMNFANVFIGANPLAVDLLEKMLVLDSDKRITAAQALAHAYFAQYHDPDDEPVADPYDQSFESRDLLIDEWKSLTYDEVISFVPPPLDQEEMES
CYP450, 2C9 enzymes, sequence (P11712 whole entry): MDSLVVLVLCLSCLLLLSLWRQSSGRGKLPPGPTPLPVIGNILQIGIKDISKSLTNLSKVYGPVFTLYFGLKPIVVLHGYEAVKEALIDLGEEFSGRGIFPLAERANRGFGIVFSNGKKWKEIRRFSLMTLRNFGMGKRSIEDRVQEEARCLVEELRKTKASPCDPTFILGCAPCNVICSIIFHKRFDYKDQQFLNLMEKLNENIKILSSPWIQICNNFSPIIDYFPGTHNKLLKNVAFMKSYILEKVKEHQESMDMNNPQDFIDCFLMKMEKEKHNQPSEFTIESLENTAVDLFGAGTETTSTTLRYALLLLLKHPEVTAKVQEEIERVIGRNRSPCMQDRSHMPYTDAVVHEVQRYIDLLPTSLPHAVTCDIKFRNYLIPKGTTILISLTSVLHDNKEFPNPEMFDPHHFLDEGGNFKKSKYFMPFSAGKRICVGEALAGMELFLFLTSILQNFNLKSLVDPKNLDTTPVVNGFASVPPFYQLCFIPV

What is called IC50 is the concentration that inhibits the measured activity by half. A low value points to greater potency. The AUC(0-t) is exposure summed from dosing to a finite time, without extrapolation to infinity. Low values mean less exposure, high ones more exposure. Consider `Cc1c(F)cc(C(=O)NC2CC2)cc1-c1ccc(C(=O)NCC(C)C)nn1` [Example 57, 6-(5-(cyclopropylcarbamoyl)-3-fluoro-2-methylphenyl)-N-isobutylpyridazin-3-carboxamide], for which the IC50 against CYP450, 2C9 enzymes was greater than 50000 nM; with TNF-α, less than 5 nM; against p38a it was less than 5 nM. Besides, in series [1], the AUC(0-t) turned out to be 22100 ng·h/mL.
`Cc1c(F)cc(C(=O)NC2CC2)cc1-c1ccc(C(=O)NCC(C)(C)C)cn1` [Comparative example, 6-(5-(cyclopropylcarbamoyl)-3-fluoro-2-methylphenyl)-N-neopentylnicotinamide, reference compound]: in the series with TNF-α, the IC50 was 10 to 20 nM. Besides, the AUC(0-t) in series [1] amounted to 9630 ng·h/mL.
For the molecule `Cc1c(F)cc(C(=O)NC2CC2)cc1-c1ccc(C(=O)NCC(C)(C)C)nn1` [Example 59, 6-(5-(cyclopropylcarbamoyl)-3-fluoro-2-methylphenyl)-N-neopentylpyridazin-3-carboxamide], the IC50 was greater than 50000 nM against CYP450, 2C9 enzymes; less than 5 nM in the series with TNF-α; less than 5 nM on p38a. Also, the AUC(0-t) in series [1] was found to be 11300 ng·h/mL.
`Cc1c(F)cc(C(=O)NC2CC2)cc1-c1ccc(C(=O)NCC2CC2)nn1` [Example 61, 6-(5-(cyclopropylcarbamoyl)-3-fluoro-2-methylphenyl)-N-(cyclopropylmethyl) pyridazin-3-carboxamide]: the IC50 against CYP450, 2C9 enzymes is greater than 50000 nM; in the series with TNF-α it was less than 5 nM; at p38a, less than 5 nM. The AUC(0-t) in series [1] was determined as 12200 ng·h/mL.
Take `Cc1cc(-c2cc(C(=O)NC3CC3)cc(F)c2C)ccc1C(=O)NCC(C)C` [Example 44, N^3-cyclopropyl-5-fluoro-N^4′-isobutyl-3′,6-dimethyl-[1,1′-biphenyl]-3,4′-dicarboxamide]: the IC50 against CYP450, 2C9 enzymes is greater than 50000 nM; in the series on TNF-α it was less than 5 nM; against p38a, 5 to 10 nM.
On the same counts, the results for `Cc1c(F)cc(C(=O)NC2CC2)cc1-c1ccc(C(=O)NC2CCCC2)nn1` [Example 4] are greater than 50000 nM, less than 5 nM and less than 5 nM.
`Cc1c(F)cc(C(=O)NC2CC2)cc1-c1ccc(C(=O)N(C)CC(C)C)nn1` [Example 3]: the IC50 is greater than 50000 nM against CYP450, 2C9 enzymes; 5 to 10 nM in the series on TNF-α; less than 5 nM against p38a.

Values taken from patent publication US10550073B2, “Benzamide derivative” (CSPC ZHONGQI PHARMACEUTICAL TECHNOLOGY (SHIJIAZHUANG) CO., …, priority 2015, dated 2020).
